Laboratory results taken from patent publication US20150266850A1 (E.I.DU PONT DE NEMOURS AND COMPANY, priority 2012, published 2015).
Marks after values point to notes of the source that are not given here.

Key:
[1] = Photostability Example: aqueous photolysis under xenon arc lamp simulating natural sunlight for 24 hours, percent remaining relative to dark controls; type: physicochemical; conditions: 0.670 μg/mL in 80/20 10 mM pH 7 phosphate buffer/acetonitrile, xenon arc lamp 24 hours
Description: Aqueous photolysis data is a simple proxy for photostability under field conditions. The following aqueous photolysis data supports the enhanced photostability of the tolyl fungicides of the present invention.
Test compound (0.670 μg/mL) dissolved in 80/20 10 mM pH 7 phosphate buffer/acetonitrile is added to 2-mL borosilicate glass HPLC vials. The addition of 20% acetonitrile is intended to ensure solubility of compounds with low aqueous solubility. Samples are exposed to light in an Atlas Ci65 Burner photolysis chamber fitted with a xenon arc lamp (6500 W) to simulate natural sunlight for 24 hours and compared with samples wrapped in aluminum foil to protect them from light under the same conditions. The 24-hour irradiation is equivalent to ˜2.6 days of average Delaware summer sunlight exposure. Samples are analyzed by HPLC and results are reported as percent remaining based on peak area relative to the dark controls.

[2] = test system: Puccinia recondita f sp. tritici; test: Test B: wheat leaf rust, preventive spray on wheat seedlings, visual disease rating; type: in vivo; conditions: 100 = 100% disease control; for pest or weed control at 200 ppm / pest or weed control at 40 ppm: 192 h
Outline: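 Test suspension in acetone/water 50/50 with 250 ppm Trem® 014, sprayed to run-off on wheat seedlings at 200 ppm (≈800 g/ha), or 40 or 50 ppm where marked. Inoculated next day with spores, held 24 h saturated at 20° C, then 7 days at 20° C; disease control rated visually, 0–100 versus controls.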

[3] = test system: Erysiphe graminis f. sp. tritici; test: Test A: wheat powdery mildew, preventive spray on wheat seedlings, visual disease rating; type: in vivo; conditions: 100 = 100% disease control; for pest or weed control at 200 ppm / pest or weed control at 40 ppm: Blumeria graminis, 192 h
Outline: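 Wheat seedlings sprayed to run-off with compound in acetone/water with 250 ppm Trem 014 (200 ppm ≈ 800 g/ha; some at 40 or 50 ppm), inoculated next day with spore dust. After 8 days at 20° C, disease control rated visually, 0–100% relative to controls.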

[4] = test system: Septoria tritici; test: Test C: wheat leaf blotch, preventive spray on wheat seedlings, visual disease rating; type: in vivo; conditions: 100 = 100% disease control; for pest or weed control at 200 ppm / pest or weed control at 40 ppm: Zymoseptoria tritici, 504 h
Outline: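 Compounds in acetone (11% of final volume) suspended in acetone/water 50/50 with 250 ppm Trem® 014; 200 ppm (≈800 g/ha), some at 40 or 50 ppm, sprayed to run-off. Septoria tritici inoculated next day; 48 h saturated at 24° C., then 19 days at 20° C.; visual rating, 0–100% control vs untreated.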

[5] = test system: Septoria nodorum; test: Test D: wheat glume blotch, preventive spray on wheat seedlings, visual disease rating; type: in vivo; conditions: 100 = 100% disease control; for pest or weed control at 200 ppm / pest or weed control at 40 ppm: Parastagonospora nodorum, 216 h
Outline: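 Preventive test: wheat seedlings sprayed to run-off with compound suspension (acetone/water with 250 ppm Trem 014; 200 ppm, some at 40 or 50 ppm), inoculated with Septoria nodorum next day. Held 48 h saturated at 20° C, then 7 days at 20° C; visual rating 0-100% disease control versus controls.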

[6] = test system: Botrytis cinerea; test: Test E: tomato botrytis, preventive spray on tomato seedlings, visual disease rating; type: in vivo; conditions: 100 = 100% disease control; for pest or weed control at 200 ppm / pest or weed control at 40 ppm: Botrytis cinerea, 120 h
Outline: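 Compounds in acetone/water (50/50) with 250 ppm Trem 014, sprayed to run-off on tomato seedlings at 200 ppm (≈800 g/ha) unless marked 40 or 50 ppm. Inoculated next day with B. cinerea spores; 48 h saturated atmosphere at 20°C, then 3 days at 27°C; visual rating, 100 = full control vs controls.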

Compound: COC(=O)NCc1cc(-n2ccc(-c3ccc(OC)cc3C)n2)ccc1F [10PP]
- % Cmpd Remaining [1]: 64%

Compound: COC(=O)NCc1cc(-n2ccc(-c3ccc(OC)cc3C)n2)ccc1Cl [10P]
- % Cmpd Remaining [1]: 0%

Compound: COC(=O)NCc1cc(-n2ncc(-c3ccc(OC)cc3OC)n2)ccc1Cl [17P]
- % Cmpd Remaining [1]: 0%

Compound: COC(=O)NCc1cc(-c2ccn(-c3ccc(OC)cc3C)n2)ccc1Cl [18P]
- % Cmpd Remaining [1]: 0%

Compound: COC(=O)NCc1cc(-n2ccc(-c3ccc(OC)cc3OC)n2)ccc1F [23PP]
- % Cmpd Remaining [1]: 5%

Compound: COC(=O)NCc1cc(-n2ccc(-c3ccc(OC)cc3OC)n2)ccc1Cl [23P]
- % Cmpd Remaining [1]: 0%

Compound: COC(=O)NCc1cc(-c2ccn(-c3ccc(OC)cc3OC)n2)ccc1Cl [24P]
- % Cmpd Remaining [1]: 0%

Compound: COC(=O)NCc1cc(-c2ccn(-c3ccc(N)cc3Cl)n2)ccc1C [Cmpd 90]
- Test B disease control rating ([2]; 200 ppm): 98%
- Test A disease control rating ([3]; 200 ppm): 0%
- Test C disease control rating ([4]; 200 ppm): 100%
- Test D disease control rating ([5]; 200 ppm): 100%
- Test E disease control rating ([6]; 200 ppm): 97%

Compound: COC(=O)NCc1cc(-n2ccc(-c3ccc(OC)cc3O)n2)ccc1C [Cmpd 103]
- Test B disease control rating ([2]; 200 ppm): 100%
- Test A disease control rating ([3]; 200 ppm): 48%
- Test C disease control rating ([4]; 200 ppm): 74%
- Test D disease control rating ([5]; 200 ppm): 100%
- Test E disease control rating ([6]; 200 ppm): 0%

Compound: COC(=O)NCc1cc(-n2ncc(-c3ccc(OC)cc3C(F)(F)F)n2)ccc1C [Cmpd 104]
- Test B disease control rating ([2]; 40 ppm (*)): 100* %
- Test A disease control rating ([3]; 40 ppm (*)): 98* %
- Test C disease control rating ([4]; 40 ppm (*)): 91* %
- Test D disease control rating ([5]; 40 ppm (*)): 100* %
- Test E disease control rating ([6]; 40 ppm (*)): 0* %

Compound: C#CCOc1cc(Cl)ccc1-c1ccn(-c2ccc(C)c(CNC(=O)OC)c2)n1 [Cmpd 108]
- Test B disease control rating ([2]; 200 ppm): 100%
- Test A disease control rating ([3]; 200 ppm): 99%
- Test C disease control rating ([4]; 200 ppm): 95%
- Test D disease control rating ([5]; 200 ppm): 100%
- Test E disease control rating ([6]; 200 ppm): 8%

Compound: COC(=O)NCc1cc(-n2ccc(-c3ccc(Br)cc3Br)n2)ccc1C [Cmpd 109]
- Test B disease control rating ([2]; 40 ppm (*)): 100* %
- Test A disease control rating ([3]; 40 ppm (*)): 99* %
- Test C disease control rating ([4]; 40 ppm (*)): 92* %
- Test D disease control rating ([5]; 40 ppm (*)): 100* %
- Test E disease control rating ([6]; 40 ppm (*)): 0* %

Compound: COC(=O)NCc1cc(-n2ccc(-c3ccc([N+](=O)[O-])cc3Cl)n2)ccc1C [Cmpd 110]
- Test B disease control rating ([2]; 40 ppm (*)): 100* %
- Test A disease control rating ([3]; 40 ppm (*)): 72* %
- Test C disease control rating ([4]; 40 ppm (*)): 93* %
- Test D disease control rating ([5]; 40 ppm (*)): 100* %
- Test E disease control rating ([6]; 40 ppm (*)): 0* %

Compound: COC(=O)NCc1cc(-c2ccn(-c3ccc(Br)cc3C#N)n2)ccc1C [Cmpd 111]
- Test B disease control rating ([2]; 200 ppm): 100%
- Test A disease control rating ([3]; 200 ppm): 94%
- Test C disease control rating ([4]; 200 ppm): 93%
- Test D disease control rating ([5]; 200 ppm): 100%
- Test E disease control rating ([6]; 200 ppm): 0%

Compound: COC(=O)NCc1cc(-n2ncc(-c3ccc(OC)cc3OC)[n+]2[O-])ccc1C [Compound 4]
- pest or weed control at 200 ppm ([2]; 200 ppm): 100%
- pest or weed control at 200 ppm ([3]; 200 ppm): 99%
- pest or weed control at 200 ppm ([4]; 200 ppm): 99%
- pest or weed control at 200 ppm ([5]; 200 ppm): 100%
- pest or weed control at 200 ppm ([6]; 200 ppm): 69%

Compound: COC(=O)NCc1cc(-n2ncc(-c3ccc(OC)cc3C)n2)ccc1C [Compound 8, methyl N-[[5-[4-(4-methoxy-2-methylphenyl)-2H-1,2,3-triazol-2-yl]-2-methylphenyl]methyl]carbamate]
- pest or weed control at 200 ppm ([2]; 200 ppm): 100%
- pest or weed control at 200 ppm ([3]; 200 ppm): 100%
- pest or weed control at 200 ppm ([4]; 200 ppm): 100%
- pest or weed control at 200 ppm ([5]; 200 ppm): 100%
- pest or weed control at 200 ppm ([6]; 200 ppm): 90%

Compound: COC(=O)NCc1cc(-c2ccn(-c3ccc(OC)cc3Cl)n2)ccc1C [Compound 20, methyl N-[[5-[1-(2-chloro-4-methoxyphenyl)-1H-pyrazol-3-yl]-2-methylphenyl]-methyl]carbamate]
- pest or weed control at 200 ppm ([2]; 200 ppm): 100%
- pest or weed control at 200 ppm ([3]; 200 ppm): 100%
- pest or weed control at 200 ppm ([4]; 200 ppm): 100%
- pest or weed control at 200 ppm ([5]; 200 ppm): 100%
- pest or weed control at 200 ppm ([6]; 200 ppm): 0%

Compound: COC(=O)NCc1cc(-c2ccn(-c3ccc(Cl)cc3OC)n2)ccc1C [Compound 28, methyl N-[[5-[1-(4-chloro-2-methoxyphenyl)-1H-pyrazol-3-yl]-2-methylphenyl]-methyl]carbamate]
- pest or weed control at 200 ppm ([2]; 200 ppm): 100%
- pest or weed control at 200 ppm ([3]; 200 ppm): 100%
- pest or weed control at 200 ppm ([4]; 200 ppm): 100%
- pest or weed control at 200 ppm ([5]; 200 ppm): 100%
- pest or weed control at 200 ppm ([6]; 200 ppm): 57%

Compound: COC(=O)NCc1cc(-n2ccc(-c3ccc(C)cc3C)n2)ccc1C [Compound 38, methyl N-[[5-[3-(2,4-dimethylphenyl)-1H-pyrazol-1-yl]-2-methylphenyl]-methyl]carbamate]
- pest or weed control at 40 ppm ([2]; 40 ppm (*)): 100%
- pest or weed control at 40 ppm ([3]; 40 ppm (*)): 100%
- pest or weed control at 40 ppm ([4]; 40 ppm (*)): 100%
- pest or weed control at 40 ppm ([5]; 40 ppm (*)): 100%
- pest or weed control at 40 ppm ([6]; 40 ppm (*)): 98%

Compound: COC(=O)NCc1cc(-c2ncn(-c3ccc(OC)cc3C)n2)ccc1C [Compound 70, methyl N-[[5-[1-(4-methoxy-2-methylphenyl)-1H-1,2,4-triazol-3-yl]-2-methylphenyl]methyl]carbamate]
- pest or weed control at 40 ppm ([2]; 40 ppm (*)): 100%
- pest or weed control at 40 ppm ([3]; 40 ppm (*)): 99%
- pest or weed control at 40 ppm ([4]; 40 ppm (*)): 96%
- pest or weed control at 40 ppm ([5]; 40 ppm (*)): 100%
- pest or weed control at 40 ppm ([6]; 40 ppm (*)): 84%

Compound: COC(=O)NCc1cc(-n2ncc(-c3ccc(I)cc3OC)[n+]2[O-])ccc1C [Compound 81]
- pest or weed control at 200 ppm ([2]; 200 ppm): 100%
- pest or weed control at 200 ppm ([3]; 200 ppm): 99%
- pest or weed control at 200 ppm ([4]; 200 ppm): 98%
- pest or weed control at 200 ppm ([5]; 200 ppm): 100%
- pest or weed control at 200 ppm ([6]; 200 ppm): 67%

Compound: COC(=O)NCc1cc(-c2ccn(-c3ccc(OC)cc3OC)n2)ccc1C [compound 24]
- Test B disease control rating ([2]; 200 ppm): 100%
- % Cmpd Remaining [1]: 78%
- Test A disease control rating ([3]; 200 ppm): 100%
- Test C disease control rating ([4]; 200 ppm): 100%
- Test E disease control rating ([6]; 200 ppm): 55%

Compound: methyl N-[[5-[1-(2,4-dimethylphenyl)-1H-pyrazol-3-yl]-2-methylphenyl]-methyl]carbamate [Compound 66]
- Test B disease control rating ([2]; 40 ppm (*)): 100* %
- Test A disease control rating ([3]; 40 ppm (*)): 100* %
- Test C disease control rating ([4]; 40 ppm (*)): 96* %
- Test D disease control rating ([5]; 40 ppm (*)): 100* %
- Test E disease control rating ([6]; 40 ppm (*)): 99* %

Compound: methyl N-[[5-[1-(4-methoxy-2-methylphenyl)-1H-1,2,4-triazol-3-yl]-2-methylphenyl]methyl]carbamate [Compound 70]
- Test B disease control rating ([2]; 200 ppm): 100%
- Test A disease control rating ([3]; 200 ppm): 100%
- Test C disease control rating ([4]; 200 ppm): 100%
- Test D disease control rating ([5]; 200 ppm): 100%
- Test E disease control rating ([6]; 200 ppm): 0%

Compound: methyl N-[[5-[3-(2,4-dimethoxyphenyl)-1H-pyrazol-1-yl]-2-methylphenyl]methyl]carbamate [Compound 23]
- Test B disease control rating ([2]; 200 ppm): 100%
- Test A disease control rating ([3]; 200 ppm): 99%
- Test C disease control rating ([4]; 200 ppm): 100%
- Test D disease control rating ([5]; 200 ppm): 100%
- Test E disease control rating ([6]; 200 ppm): 56%

Compound: methyl N-[[5-[3-(2,6-dimethoxy-3-pyridinyl)-1H-pyrazol-1-yl]-2-methylphenyl]-methyl]carbamate [Compound 46]
- Test B disease control rating ([2]; 40 ppm (*)): 100* %
- Test A disease control rating ([3]; 40 ppm (*)): 98* %
- Test C disease control rating ([4]; 40 ppm (*)): 98* %
- Test D disease control rating ([5]; 40 ppm (*)): 100* %
- Test E disease control rating ([6]; 40 ppm (*)): 92* %

Compound: methyl N-[[5-[4-(2,4-dimethylphenyl)-2H-1,2,3-triazol-2-yl]-2-methylphenyl]-methyl]carbamate [Compound 91]
- Test B disease control rating ([2]; 40 ppm (*)): 100* %
- Test A disease control rating ([3]; 40 ppm (*)): 100* %
- Test C disease control rating ([4]; 40 ppm (*)): 92* %
- Test D disease control rating ([5]; 40 ppm (*)): 100* %
- Test E disease control rating ([6]; 40 ppm (*)): 33* %
